Measurements taken from patent US20100113599A1, “AMPHIPATHIC CARBOXYLATES FOR THE TREATMENT OF IMMUNE-RELATED DISORDERS” (Syndromex Ltd. c/o Yissum Research Development Company, of, priority 2007, published 2010).

What was measured:
fibrinogen α mRNA = experiment: Fibrinogen mRNA expression in IL-6-stimulated HepG2 cells (real time RT-PCR); type: cell-based, human; settings: 200 mM M16αα 40 h, control as well as IL-6 (20 ng/ml, last 15 h) induced cells, normalized by GAPDH
Procedure: HepG2 cells were incubated for 40 h with […] M16αα. IL-6 (20 ng/ml) was added for the last 15 h. Total RNA was prepared and was analyzed by real time RT-PCR for fibrinogen a mRNA. Transcript levels were normalized by GAPDH.
The hypolipidemic effect of both M16ααα and/or M16ββ (MEDICA drugs) and its application in the treatment of Metabolic Syndrome, led the inventors to try and examine the effect of these drugs on another crucial risk factor in Metabolic Syndrome CVD patients, namely, the inflammatory indications. These indications are identified by markers like C-reactive protein (CRP), Serum amyloid A (SAA), fibrinogen and ICAM that promote atherosclerotic CVD. To evaluate the possible anti-inflammatory effect of MEDICA drugs, the inventors first examined the effect of M16αα, on the expression of different acute phase proteins (APP). Human liver cells (HepG2 cells) were stimulated with IL-6 and incubated with the MEDICA drug, M16αα. Total RNA was analyzed by real time PCR for expression of mRNA of different acute phase proteins (APP).

gp130 = gp130 protein levels in HepG2 cells (Western blot); type: cell-based, human; settings: 200 μM for 17 and 24 h, LIF 20 ng/ml
Procedure: MEDICA drugs inhibit LIF-induced STAT3 phosphorylation. HepG2 cells were incubated with M16αα (200 μM) for 17 and 24 h. At each time point LIF (20 ng/ml) was added for the last 20 minutes (for protein) or for the last 3 h (for mRNA). Western blots of cell lysates were reacted with anti gp130 and anti P-STAT3 (Y705) antibodies and normalized by β-actin.
MEDICA drugs inhibit IL-6-induced STAT3 phosphorylation. HepG2 cells were incubated for 40 h with […] M16αα. IL-6 (20 ng/ml) was added for the last 15 h. Western blots of cell lysates were reacted, with anti GP-130, anti STAT3, anti P-STAT3 (Y705) and anti P-STAT3 (S727) antibodies and normalized by β-actin. Abbreviations: cont. (control), dim. (dimer), Tot. (total), mono. (monomer).
The examined effect of MEDICA drugs on expression of APP, was further analyzed by analyzing the effect of M16αα on downstream elements in the signaling pathway leading to expression of APP. Signal Transducers and Activators of Transcription 3 (STAT3), is a transcription factor phosphorylated by JAK kinases in response to cytokine activation of a cell surface receptor tyrosine kinases. Cytokines that activate STAT3 include growth hormone, IL-6 family cytokines, Oncostatin, LIF, CNTF and G-CSF, Leptin and others. […]

RPMI8226 cells = experiment: Growth of Multiple Myeloma RPMI8226 cells, Trypan Blue exclusion; type: cell-based; settings: 200 μM, from day one
Procedure: Growth Suppression by M16αα of Multiple Myeloma (MM) cells. MM cells were incubated in RPMI 1640 medium in the presence of added M16αα as indicated. Cell number was determined daily by Trypan Blue exclusion.
The inhibitory effect of MEDICA drugs on colon tumor cell proliferation, presumably via activation of apoptosis, encouraged the inventors to further investigate the potential beneficial effect of these compounds on other malignancies. The inventors therefore next examined the effect of the MEDICA drugs using the Multiple myeloma model. U-266 and RPMI-8226 cell lines served as cell models for MM. MM cells were incubated in RPMI 1640 medium in the presence of M16αα as indicated. Cell number was determined daily by Trypan Blue exclusion assay. […] It should be noted that generally, these cells were more sensitive even to lower concentrations of M16αα.

U266 cells = experiment: Apoptosis markers (PARP, Bcl-2, Bcl-xL) in MM U266 cells (Western blot); type: cell-based; settings: 200 μM
Procedure: U266 cells were cultured with 200 μM M16αα for time periods as indicated, lysed, Western blotted and reacted with anti STAT3, p-STAT3 (Y705), PARP or Bcl-xL antibodies.
To examine the possibility that the inhibitory effect of M16αα, on Multiple Myeloma may be mediated by enhancement of pro apoptotic mechanism and induction of cell cycle arrest, U266 cells were cultured with 200 μM M16αα in RPMI 1640 medium with 10% FCS for time periods as indicated, lysed, Western blotted and reacted with anti STAT3, p-STAT3 (Y705), PARP or Bcl-xL and Bcl-2 as indicated.

human CRP = experiment: LPS-induced human CRP in hCRPtg mice; type: in vivo; settings: 0.06% (W/W) (about 60 mg/kg body weight/day) for fourteen days, LPS 25 μg/mice last 18 h
Procedure: The effect of M16αα in decreasing human CRP induced by LPS injection was analyzed in hCRPtg mice treated with M16αα for 14 days and challenged with LPS.
Therefore, hCRPtg mice were treated for ten days with M16αα (80 mg/kg/d) dissolved in 1% CMC and administered by gavage. Plasma CRP was determined by ELISA at the beginning and at the end of treatment. […] The inventors further examined the effect of the MEDICA drugs on LPS-induced CRP. Therefore, CRP expression was analyzed in hCRPtg mice treated with M16αα 0.06% (W/W) (about 60 mg/kg body weight/day) for fourteen days and challenged with LPS (25 μg/mice) for the last 18 h. As illustrated by the histogram of FIG. 25, treatment with M16αα decreases LPS-induced levels of human CRP.

CC(C)(CCCCCCCCCCCCC(C)(C)C(=O)O)C(=O)O [M16αα, 2,2,15,15-tetramethyl-hexadecanedioic acid]
fibrinogen mRNA levels (fibrinogen α mRNA): clearly reduced | gp130 protein levels (gp130): significantly reduced | cell number relative to control (RPMI8226 cells): about 20 % of control | anti-apoptotic markers (Bcl-2, Bcl-xL) (U266 cells): concomitant decrease | cleavage of PARP (U266 cells; compared to control cells): enhancement | LPS-induced levels of human CRP (human CRP): decreases
